From patent US7695930B2, “Method for the detection, identification and/or quantification of microoganisms with peptidase activity using phenoxazinone derivatives as enzyme substrates” (Biomerieux, priority 2003, dated 2010)

Legend:
Assay in all cases: Alanine peptidase detection, substrates with one to three amino acids (Example 15)
Format in all cases: cell-based
Set-up in all cases: key to color of the colony: R=pink; RP=pale pink; I=colorless
Conditions in all cases: 50 mg/l
[1] = system: Staphylococcus aureus (NCTC 6571)
Protocol: (§1) 1000 ml of Columbia medium was melted in a waterbath at 100° C. and autoclaved at 121° C. for 15 min. It was then cooled to 50° C. in a waterbath.
(§2) This medium was separated into 5 flasks of 200 ml, and then, added at 50° C., as substrates, was that of Example 2 for which A is: • medium 1: L-alanine (L-alanine-9-aminobenzo[a]phenoxazin-5-one or A-ABP), • medium 2: L-alanine-L-alanine (L-alanine-L-alanine-9-aminobenzo-[a]phenoxazin-5-one or AA-ABP), • medium 3: L-alanine-L-alanine-L-alanine (L-alanine-L-alanine-L-alanine-9-aminobenzo[a]phenoxazin-5-one or AAA-ABP), • medium 4: L-alanine-glycine (L-alanine-glycine-9-aminobenzo[a]phenoxazin-5-one or AG-ABP), and • medium 5: glycine-L-alanine (glycine-L-alanine-9-aminobenzo[a]phenoxazin-5-one or GA-ABP), each substrate being solubilized in DMSO and used at a final concentration of 50 mg/l.
(§3) The medium was then poured into Petri dishes.
(§4) Nine microorganism strains derived from the Applicant's collection, suspended in physiological saline, were seeded in colonies on the media prepared in point 15.1 above according to a multipoint inoculation in a proportion of 15 000 cfu/spot. The dishes were incubated at 37° C. for 48 hours. The colonies formed were examined visually after incubation for 24 and 48 hours.
(§5) The results are expressed in Tables 7 and 8 hereinafter according to the rules and the nomenclature stated in paragraph 11.3 and where R=pink, RP=pale pink and I=colorless.

[2] = system: Staphylococcus epidermis (NCTC 11047)
Protocol: as §1, §2, §3, §4, §5

[3] = system: Escherichia coli (NCTC 10418)
Protocol: as §1, §2, §3, §4, §5

[4] = system: Acinetobacter baumannii (ATCC 19606)
Protocol: as §1, §2, §3, §4, §5

[5] = system: Listeria monocytogenes (NCTC 11994)
Protocol: as §1, §2, §3, §4, §5

[6] = system: Enterobacter clocae (NCTC 11936)
Protocol: as §1, §2, §3, §4, §5

[7] = system: Pseudomonas aerigunosa (NCTC 10038)
Protocol: as §1, §2, §3, §4, §5

[8] = system: Micrococcus luteus (NCTC611)
Protocol: as §1, §2, §3, §4, §5

| Substance | color of the colony ([1]; 24 h) | growth diameter ([1]; 24 h) [mm] | color of the colony ([1]; 48 h) | growth diameter ([1]; 48 h) [mm] | color of the colony ([2]; 24 h) | growth diameter ([2]; 24 h) [mm] | color of the colony ([2]; 48 h) | growth diameter ([2]; 48 h) [mm] | color of the colony ([3]; 24 h) | growth diameter ([3]; 24 h) [mm] | color of the colony ([3]; 48 h) | growth diameter ([3]; 48 h) [mm] | color of the colony ([4]; 24 h) | growth diameter ([4]; 24 h) [mm] | color of the colony ([4]; 48 h) | growth diameter ([4]; 48 h) [mm] | color of the colony ([5]; 24 h) | growth diameter ([5]; 24 h) [mm] | color of the colony ([5]; 48 h) | growth diameter ([5]; 48 h) [mm] | also measured |
| --- | --- | --- | --- | --- | --- | --- | --- | --- | --- | --- | --- | --- | --- | --- | --- | --- | --- | --- | --- | --- | --- |
| L-alanine-L-alanine-9-aminobenzo-[a]phenoxazin-5-one [AA-ABP] | I | 3 | I | 2 | I | 2 | I | 2 | R | 3 | R | 3 | R | 3 | R | 3 | R | 2 | R | 2 | color of the colony ([6]; 24 h): R; growth diameter ([6]; 24 h): 3 mm; color of the colony ([6]; 48 h): R; growth diameter ([6]; 48 h): 3 mm; color of the colony ([7]; 24 h): R; growth diameter ([7]; 24 h): 3 mm; color of the colony ([7]; 48 h): R; growth diameter ([7]; 48 h): 3 mm; growth diameter ([8]; 24 h): 0 mm; growth diameter ([8]; 48 h): 0 mm |
| L-alanine-L-alanine-L-alanine-9-aminobenzo[a]phenoxazin-5-one [AAA-ABP] | I | 3 | I | 3 | I | 2 | I | 2 | R | 3 | R | 3 | R | 3 | R | 3 | R | 2 | R | 2 | color of the colony ([6]; 24 h): R; growth diameter ([6]; 24 h): 3 mm; color of the colony ([6]; 48 h): R; growth diameter ([6]; 48 h): 3 mm; color of the colony ([7]; 24 h): R; growth diameter ([7]; 24 h): 3 mm; color of the colony ([7]; 48 h): R; growth diameter ([7]; 48 h): 3 mm; color of the colony ([8]; 24 h): R; growth diameter ([8]; 24 h): 1 mm; color of the colony ([8]; 48 h): R; growth diameter ([8]; 48 h): 3 mm |
| L-alanine-glycine-9-aminobenzo[a]phenoxazin-5-one [AG-ABP] | I | 3 | I | 3 | I | 3 | I | 3 | R | 3 | R | 3 | RP | 3 | R | 3 | I | 2 | I | 3 | color of the colony ([6]; 24 h): R; growth diameter ([6]; 24 h): 3 mm; color of the colony ([6]; 48 h): R; growth diameter ([6]; 48 h): 3 mm; color of the colony ([7]; 24 h): RP; growth diameter ([7]; 24 h): 3 mm; color of the colony ([7]; 48 h): R; growth diameter ([7]; 48 h): 3 mm; color of the colony ([8]; 24 h): I; growth diameter ([8]; 24 h): 1 mm; color of the colony ([8]; 48 h): R; growth diameter ([8]; 48 h): 3 mm |
| glycine-L-alanine-9-aminobenzo[a]phenoxazin-5-one [GA-ABP] | I | 3 | I | 3 | I | 1 | I | 2 | R | 3 | R | 3 | R | 3 | R | 3 | I | 2 | R | 2 | color of the colony ([6]; 24 h): R; growth diameter ([6]; 24 h): 3 mm; color of the colony ([6]; 48 h): R; growth diameter ([6]; 48 h): 3 mm; color of the colony ([7]; 24 h): RP; growth diameter ([7]; 24 h): 3 mm; color of the colony ([7]; 48 h): R; growth diameter ([7]; 48 h): 3 mm; growth diameter ([8]; 24 h): 0 mm; growth diameter ([8]; 48 h): 0 mm |
